Laboratory results taken from patent publication US20250241870A1, “OXYRESVERATROL AND DERIVATIVES THEREOF FOR USE IN LIPOLYSIS” (Caliway Biopharmaceuticals Co., Ltd., priority 2024, published 2025).
Like-named read-outs stand apart in the source and are kept apart here.

Experiments:
[1] = MTT assay, cell viability rate of 3T3-L1 mature adipocytes; assay type: cell-based; details: mouse
Method: (§1) 3T3-L1 cell subculture medium (preadipocytes): DMEM+10% BCS+1% P/S.
(§2) 3T3-L1 cell induction differentiation medium (mature adipocytes): DMI Medium: DMEM+10% FBS+1% P/S+0.5 μM IBMX+0.1 μM dexamethasone+5 μg/mL insulin; and INS Medium: DMEM+10% FBS+1% P/S+5 μg/mL insulin. IBMX stock solution was prepared as follows: 500 mM solution in DMSO diluted and used to prepare the differentiation medium. Dexamethasone stock solution was preprepared as follows: 10 mM solution in EtOH diluted and used to prepare the differentiation medium. Insulin stock solution was prepared as follows: 10 mg/mL solution in double distilled water (ddw) diluted and used to prepare the differentiation medium.
(§3) Steps to induce differentiation: The adipocyte precursors 3T3-L1 cells (purchased from the Food Industry Research and Development Institute, Taiwan; abbreviated as BCRC) were seeded in 12-well plates, such that each well contained 1×10^5 cells.
(§4) MTT assay: After 3T3-L1 cells were induced to differentiate into mature adipocytes for 8 days, Resveratrol or Oxyresveratrol was added for treatment for 24 hours, then the culture medium was replaced with MTT reagent (working concentration: 0.5 mg/mL), and cultured in a 37° C. incubator for 2 hours. After removing the supernatant, DMSO was added to dissolve the purple crystals, and an ELISA reader was used to measure the OD 570 nm absorbance value and OD 630 nm background absorbance value. The background value OD 630 nm was subtracted from the measured value OD 570 nm in each group to obtain the final absorbance value.
(§5) Calculation formula (cell viability rate): After measuring the absorbance value at 570 nm and subtracting the background absorbance at 630 nm, the final absorbance value was multiplied by the […] and divided by the average absorbance value of the Control group for calculation.
(§6) 3T3-L1 preadipocytes and mature adipocytes were cultured using the same cell subculture medium disclosed in Example 1 above. Adipocytes differentiation, MTT assay, and determination cell viability was conducted following the methods disclosed herein. See, e.g. Example 1 above.

3T3-L1 mature adipocytes = assay: as above; assay type: cell-based; details: 24 hours; for Cell viability compared with DMSO Vehicle group / Effect on adipocytes compared with resveratrol at the same concentration: p<0.001; for Cell viability rate compared with 0.2% DMSO Vehicle group: 20 ppm, 40 ppm and 60 ppm, p<0.001, dose effect; for Effect on adipocytes compared with resveratrol at the same concentration: 40 ppm
Method: as §1, §2, §3, §4, §5, §6

[2] = Cell viability rate, Replicate 1
[3] = Cell viability rate, Replicate 2
[4] = Cell viability rate, Replicate 3
[5] = Cell viability rate, Replicate 4

SMILES | Cell viability compared with DMSO Vehicle group (3T3-L1 mature adipocytes; 50 ppm) | viability at 24 h, 50 ppm ([1]; Cell viability rate, Mean) [%] | viability at 24 h, 50 ppm [1, 2] [%] | viability at 24 h, 50 ppm [1, 3] [%] | viability at 24 h, 50 ppm [1, 4] [%] | viability at 24 h, 50 ppm [1, 5] [%] | Cell viability rate compared with 0.2% DMSO Vehicle group (3T3-L1 mature adipocytes) | also measured
COc1ccc(/C=C/c2cc(O)cc(O)c2)cc1O [IM05, 5-[(E)-2-(3-hydroxy-4-methoxyphenyl)ethenyl]benzene-1,3-diol] | significantly decreased | – | – | – | – | – | – | viability at 24 h, 50 ppm ([1]; 3T3-L1 mature adipocytes (differentiated from preadipocytes), 3T3-L1 mature adipocytes, drug 50 ppm, 0.2% DMSO, 24 hours, mean of 4 replicates, read-out: Cell viability rate, Mean): 72.4%; viability at 24 h, 50 ppm ([1]; 3T3-L1 mature adipocytes (differentiated from preadipocytes), 3T3-L1 mature adipocytes, drug 50 ppm, 0.2% DMSO, 24 hours, read-out: Cell viability rate, Replicate 1): 66.5%; viability at 24 h, 50 ppm ([1]; 3T3-L1 mature adipocytes (differentiated from preadipocytes), 3T3-L1 mature adipocytes, drug 50 ppm, 0.2% DMSO, 24 hours, read-out: Cell viability rate, Replicate 2): 71.2%; viability at 24 h, 50 ppm ([1]; 3T3-L1 mature adipocytes (differentiated from preadipocytes), 3T3-L1 mature adipocytes, drug 50 ppm, 0.2% DMSO, 24 hours, read-out: Cell viability rate, Replicate 3): 73.5%; viability at 24 h, 50 ppm ([1]; 3T3-L1 mature adipocytes (differentiated from preadipocytes), 3T3-L1 mature adipocytes, drug 50 ppm, 0.2% DMSO, 24 hours, read-out: Cell viability rate, Replicate 4): 78.4%
Oc1cc(O)cc(/C=C/c2ccc(O)cc2O)c1 [Oxyresveratrol, 4-[(E)-2-(3,5-dihydroxyphenyl)ethenyl]benzene-1,3-diol] | significantly decreased | 39.6 | 43.2 | 38 | 37 | 40 | significantly lower than 0.2% DMSO Vehicle group | viability at 24 h, 20 ppm ([1]; Average viability (%)): 76.8 ± 3.27%; viability at 24 h, 40 ppm ([1]; Average viability (%)): 28.65 ± 0.26%; viability at 24 h, 60 ppm ([1]; Average viability (%)): 12.5 ± 1.09%; Effect on adipocytes compared with resveratrol at the same concentration (3T3-L1 mature adipocytes; listed as OxyR): more effective in reducing adipocytes than Res; Effect on adipocytes compared with resveratrol at the same concentration (3T3-L1 mature adipocytes; listed as oxyresveratrol): better inhibitory effects against adipocytes as compared with resveratrol; Effect on adipocytes survival compared with derivatives TriacetylR and IM05 (3T3-L1 mature adipocytes; 50 ppm): more effective in reducing adipocytes survival than its derivatives; Cell viability rate compared with resveratrol at the same concentration (3T3-L1 mature adipocytes; 60 ppm): no significant difference in cell viability rate
Oc1ccc(C=Cc2cc(O)cc(O)c2)cc1 [Resveratrol] | – | – | – | – | – | – | significantly lower than 0.2% DMSO Vehicle group | viability at 24 h, 20 ppm ([1]; 3T3-L1 mature adipocytes (differentiated from preadipocytes), 3T3-L1 mature adipocytes, drug 20 ppm, 0.2% DMSO, 24 hours, relative to Control, mean ± spread of 3 replicates, read-out: Average viability (%)): 69.6 ± 1.36%; viability at 24 h, 40 ppm ([1]; 3T3-L1 mature adipocytes (differentiated from preadipocytes), 3T3-L1 mature adipocytes, drug 40 ppm, 0.2% DMSO, 24 hours, relative to Control, mean ± spread of 3 replicates, read-out: Average viability (%)): 43.4 ± 1.47%; viability at 24 h, 60 ppm ([1]; 3T3-L1 mature adipocytes (differentiated from preadipocytes), 3T3-L1 mature adipocytes, drug 60 ppm, 0.2% DMSO, 24 hours, relative to Control, mean ± spread of 3 replicates, read-out: Average viability (%)): 14.1 ± 0.6%
CC(=O)Oc1ccc(/C=C/c2cc(OC(C)=O)cc(OC(C)=O)c2)cc1 [TriacetyIR, [4-[(E)-2-(3,5-diacetyloxyphenyl)ethenyl]phenyl] acetate] | significantly decreased | 68.9 | 73.2 | 64 | 67.2 | 71.2 | – | –
